From patent publication US10829798B2, “DNA-linked enzyme-coupled assays” (THE REGENTS OF THE UNIVERSITY OF CALIFORNIA, priority 2014, dated 2020)

Key:
OleD [1] = molecular target: T1, OleD (Streptomyces antibioticus, UniProt Q53685, P55A/R82V/R83E/T84P); test: LCMS analysis of OleD-catalyzed glucosylation in cell-free reactions; type: biochemical; settings: equal-molar chemical and UDP-glucose, PURExpress, 3 hours at 37° C.
T1 construct: made in house; host or cells: PURExpress In Vitro Protein Synthesis Kit (NEB E6800L), cell-free transcription/translation, linear DNA with T7 promoter
T1 sequence (Q53685 other isoform, or with tags, fused parts or gaps P55A/R82V/R83E/T84P): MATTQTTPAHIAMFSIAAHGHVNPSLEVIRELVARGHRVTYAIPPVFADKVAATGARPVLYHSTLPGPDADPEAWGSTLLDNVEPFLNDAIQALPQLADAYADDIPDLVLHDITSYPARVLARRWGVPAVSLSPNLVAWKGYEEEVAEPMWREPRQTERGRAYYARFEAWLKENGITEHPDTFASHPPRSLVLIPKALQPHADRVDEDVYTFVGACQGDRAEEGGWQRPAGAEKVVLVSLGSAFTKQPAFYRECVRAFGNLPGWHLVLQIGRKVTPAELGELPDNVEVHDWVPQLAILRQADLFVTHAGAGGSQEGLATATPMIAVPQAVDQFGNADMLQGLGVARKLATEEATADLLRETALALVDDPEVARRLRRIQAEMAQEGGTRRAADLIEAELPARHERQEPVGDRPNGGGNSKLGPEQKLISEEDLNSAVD
From the text: Determination of glucosylation was accomplished by means of an LCMS system consisting of an Agilent Technologies 1200 series HPLC with an Agilent Technologies 6520 Accurate Mass qTOF LC/MS. An Eclipse Plus C18 (4.6 mm×100 mm i.d., 3.5-μm packing, Agilent Technologies) reverse-phase column with a guard Zorbax Eclipse Plus C18 column ([…], 5 μm packing, Agilent Technologies) was used for separating the samples. Water+0.1% Formic Acid and Acetonitrile+0.1% Formic Acid were used as mobile phases at a flow rate of 500 μl/min. The elution gradient water/acetonitrile ratio) was ramped as follows: 98:2 (v/v) (0-2 min), 98:2-5:95 (v/v) linearly (2-17 min), 5:95 (v/v) (17-27 min), and 5:95-98-2 (v/v) (27-28 min). Full scanning mode (50-750 m/z) was used for data acquisition in a positive-ion mode, and the operation parameters were as follows: ESI probe capillary voltage, +3.5 kV with a scan rate of 1.01 scans/second. The nebulizer gas flow rate was 7 L/min. During the analysis two references (121.0509 m/z (C5H4N4) and 922.0098 m/z (C18H18O6N3P3F24)) were continuously measured to allow constant mass correction.
Samples were prepared directly from cell-free reactions. Equal-molar amounts of chemical and UDP-glucose were incubated with DNA encoding the glucosyltransferase of interest or water in PURExpress for 3 hours at 37° C. […]

OleD [2] = molecular target: T1, OleD; test: qPCR DLEnCA, cell-free transcription/translation-derived OleD; type: biochemical; settings: OleD DNA 5 nM, UDP-Glc 2 μM, probe 0.2 nM; for recovery of intact probe DNA: chemical 1 mM, low recovery = substrate glucosylated; for significant loss in protection of the DNA probe: flavone 1 mM
Method: (§1) FIG. 4A-FIG. 4D. qPCR DLEnCA and substrate specificity studies. A. Chemicals used as substrates in subsequent assays: (i) known substrates of OleD; (ii) flavone library; (iii) known substrates of GT05 (UGT72B1 (Q9M156)) and GT06 (UGT89B1 (AT1 G73880)). B. DNA encoding OleD (5 nM) was incubated in a cell-free transcription/translation system for 3 hours at 37° C., followed by the addition of chemical (1 mM) and UDP-Glc (2 μM). After a subsequent incubation of 3 hours, TbGT and probe (0.2 nM) were added. After probe purification and MfeI digestion, probe integrity was identified using qPCR. Percent recovery of probe is reported (n=8; error bars=standard error). C. DNA encoding OleD (5 nM) was incubated for 3 hours at 37° C. in a cell-free transcription/translation system, followed by the addition of flavone (1 mM) and UDP-Glc (2 μM). After a subsequent incubation of 3 hours, TbGT and probe (0.2 nM) were added. After probe purification and MfeI addition, probe integrity was identified using qPCR. Percent recovery of probe is reported (n=8; error bars=standard error). D. DNA encoding OleD, GT05, or GT06 (5 nM) were incubated for 3 hours at 37° C. in a cell-free transcription/translation system, followed by the addition of chemical (1 mM) and UDP-Glc (2 μM). After a subsequent incubation of 3 hours, TbGT and probe (0.2 nM) were added. After probe purification and MfeI digestion, probe integrity was identified using qPCR. Percent recovery of probe is reported as a heat map (n=8) (specific recovery figures and percent error can be found in FIG. 16). *=p<0.05 vs. no chemical control.
PCR tubes were used for most reactions. All incubations were performed at 37° C. Assays were initiated upon the addition of linear DNA (5 nM final concentration) to 4 μl PURExpress Solution A and 3 μl PURExpress Solution B. Samples were incubated at 37° C. for 3 hours prior to addition of UDP-Glucose and chemical (1 mM final concentration) in DMSO. Samples were incubated for an additional 3 hours prior to addition of 1 unit T4 Phage β-glucosyltransferase containing 0.2 nM probe. Samples were incubated an additional 3 hours before DNA was purified using the Zymo DNA Clean and Concentrator Kit. Samples were digested overnight with MfeI prior to analysis. Concentration of intact DNA probe was identified using the iQ SYBR Green Supermix (1708880) with probe DNA as standards. qPCR was carried out on the Bio-Rad iQ5 Multicolor Real-Time PCR Detection System using primers P13 and P14 with the following temperatures; 94° C. 30 seconds followed by 40 cycles of 94° C. 10 seconds and 55° C. for 30 seconds. All results were compared to uncut probe DNA that had been carried through the process as negative controls (considered full recovery of probe).
The second DLEnCA workflow developed involved qPCR as a final readout (qPCR DLEnCA, FIG. 1—qPCR workflow). A linear fragment of DNA was modified to contain 5-hm-cytosines throughout. To determine a threshold for probe protection under conditions amenable to the qPCR DLEnCA workflow, UDP-Glc was titrated into mixtures of the cell-free transcription/translation system containing 5-hm-cytosine-modified DNA probe (0.2 nM probe DNA containing 0.1 μM modified 5-hm-cytosines) and TbGT. After digestion with the restriction enzyme MfeI, the amount of intact DNA probe was determined using qPCR (FIG. 3C). […] A threshold for protection was identified at a 20:1 molar ratio of UDP-Glc to total 5-hm-cytosine in probe DNA; this UDP-Glc amount was used as the starting concentration of UDP-Glc for all qPCR experiments. To test the feasibility of qPCR DLEnCA, OleD was again tested upon the substrate kaempferol (FIG. 3D), using DNA encoding a promoter and OleD as starting material. As expected, when all components of the assay were present, 27% of intact probe DNA was recovered. […]

OleD [3] = settings: Williams 2007; Choi 2012; Yang 2005; cited from earlier work
GT05 (UGT72B1 (Q9M156)) = molecular target: T2, GT05 (UGT72B1 (Q9M156)) (Arabidopsis thaliana, UniProt Q9M156); test: qPCR DLEnCA, cell-free transcription/translation-derived GT05; type: biochemical; settings: GT05 DNA 5 nM, chemical 1 mM, UDP-Glc 2 μM, probe 0.2 nM; low recovery = substrate glucosylated
T2 construct: made in house; host or cells: PURExpress In Vitro Protein Synthesis Kit (NEB E6800L), cell-free transcription/translation, linear DNA amplified from pET15b construct
T2 sequence (Q9M156 1-480): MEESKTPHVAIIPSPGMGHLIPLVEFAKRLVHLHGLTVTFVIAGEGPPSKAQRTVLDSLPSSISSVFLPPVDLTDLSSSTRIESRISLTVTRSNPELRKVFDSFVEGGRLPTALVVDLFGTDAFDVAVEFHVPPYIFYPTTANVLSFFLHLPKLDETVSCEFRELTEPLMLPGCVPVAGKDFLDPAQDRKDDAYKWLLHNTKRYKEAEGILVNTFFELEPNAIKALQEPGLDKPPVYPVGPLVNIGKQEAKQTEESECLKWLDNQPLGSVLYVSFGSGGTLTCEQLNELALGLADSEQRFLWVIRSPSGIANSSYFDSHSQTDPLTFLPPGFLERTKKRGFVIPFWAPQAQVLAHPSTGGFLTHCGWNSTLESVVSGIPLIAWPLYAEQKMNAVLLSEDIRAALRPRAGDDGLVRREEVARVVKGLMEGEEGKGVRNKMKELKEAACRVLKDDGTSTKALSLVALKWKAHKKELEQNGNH
Method: as §1
PCR tubes were used for most reactions. All incubations were performed at 37° C. Assays were initiated upon the addition of linear DNA (5 nM final concentration) to 4 μl PURExpress Solution A and 3 μl PURExpress Solution B. Samples were incubated at 37° C. for 3 hours prior to addition of UDP-Glucose and chemical (1 mM final concentration) in DMSO. Samples were incubated for an additional 3 hours prior to addition of 1 unit T4 Phage β-glucosyltransferase containing 0.2 nM probe. […]

[4] = molecular target: T3, GT06 (UGT89B1 (AT1G73880)) (Arabidopsis thaliana, UniProt Q9C9B0); test: qPCR DLEnCA, cell-free transcription/translation-derived GT06; type: biochemical; settings: GT06 DNA 5 nM, chemical 1 mM, UDP-Glc 2 μM, probe 0.2 nM; low recovery = substrate glucosylated
T3 sequence (Q9C9B0 1-473): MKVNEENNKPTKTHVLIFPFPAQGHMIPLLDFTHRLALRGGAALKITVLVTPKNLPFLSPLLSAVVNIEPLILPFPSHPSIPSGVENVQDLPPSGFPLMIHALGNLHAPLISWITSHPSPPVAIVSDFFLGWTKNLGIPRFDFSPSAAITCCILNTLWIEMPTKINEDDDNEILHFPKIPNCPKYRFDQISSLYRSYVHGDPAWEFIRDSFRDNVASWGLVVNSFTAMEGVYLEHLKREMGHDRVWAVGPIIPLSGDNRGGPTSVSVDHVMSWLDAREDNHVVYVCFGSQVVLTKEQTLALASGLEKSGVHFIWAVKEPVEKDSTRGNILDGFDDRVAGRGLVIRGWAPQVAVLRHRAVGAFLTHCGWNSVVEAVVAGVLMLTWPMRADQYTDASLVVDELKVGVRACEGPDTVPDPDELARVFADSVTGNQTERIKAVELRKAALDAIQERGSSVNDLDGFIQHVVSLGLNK
Method: as §1, with “After probe purification and MfeI digestion, probe integrity was identified using qPCR. Percent recovery of probe is reported as a heat map (n=8) (specific recovery figures and percent error can be found in FIG. 16). *=p<0.05 vs. no chemical control.” left out

SMILES | recovery of intact probe DNA (OleD [2]) | OleD substrate quality reported in previous studies (OleD [3]) | further results
O=c1cc(-c2ccc(O)cc2)oc2cc(O)cc(O)c12 [II, apigenin] | 42% | slower rate or with less efficiency than with (I) | identification as OleD substrate by LCMS (OleD [1]): identified the chemicals as substrates
Cc1cc(=O)oc2cc(O)ccc12 [III, 4-methylumbelliferone] | 60% | slower rate or with less efficiency than with (I) | identification as OleD substrate by LCMS (OleD [1]): identified the chemicals as substrates
O=C(O)Cc1cc(=O)oc2cc(O)ccc12 [IV, 7-hydroxycoumarin-4-acetic acid] | 82% | very weak substrates | –
O=c1cc(-c2ccccc2)oc2cc(O)ccc12 [IX, 7-hydroxyflavone] | 39% | – | –
O=C(O)c1cc2ccc(O)cc2oc1=O [V, 7-hydroxycoumarin-3-carboxylic acid] | 97% | very weak substrates | –
O=c1c(O)c(-c2ccccc2)oc2ccccc12 [VI, 3-hydroxyflavone] | 42% | – | –
O=c1cc(-c2ccc(O)cc2)oc2ccccc12 [VII, 4-hydroxyflavone] | – | – | significant loss in protection of the DNA probe (OleD [2]): not the case
O=c1cc(-c2ccccc2)oc2cccc(O)c12 [VIII, 5-hydroxyflavone] | – | – | significant loss in protection of the DNA probe (OleD [2]): not the case
O=C(O)c1cccc(O)c1 [X, 3-hydroxybenzoic acid] | – | – | recovery of probe (GT05 (UGT72B1 (Q9M156))): 33%
O=C(O)c1ccc(O)c(O)c1 [XII, 3,4-dihydroxybenzoic acid] | – | – | recovery of probe (GT05 (UGT72B1 (Q9M156))): 40%; recovery of probe [4]: 30%
